The target in one series is T1, D/D domain of RIIα (Homo sapiens, UniProt P13861).
T1 construct: ^15N-isotopically enriched RIIα(1-44)
Put plainly: 1H,15N-HSQC NMR binding experiment with 15N-labeled D/D domain. The settings on record: result in words; 100 µM 15N-labeled D/D domain, 300 µM compound. Here is the method:
For an estimate of binding specificity, the compounds were tested in a second NMR assay for binding to the D/D domain of RIIα. The D/D domain contains the AKAP binding site of RIIα. Therefore, suitable small molecule mimetics of the RIIBD of AKAP18 must bind to this domain of the full length protein. In other words, binding to the D/D domain is a good initial test for an AKAP-like, specific interaction of the compounds with RIIα.
For this purpose HSQC-experiments with ^15N-labeled D/D domain were employed with the compounds depicted in table 3. The results obtained correspond to the results from the STD experiments. […] In Fig. 5, HSQC-spectra of the D/D domain in presence and absence of 25b are depicted.
^1H,^15N-Heteronuclear Single Quantum Coherence (HSQC)-NMR)
^1H,^15N-HSQC-NMR experiments were carried on a 600 MHz spectrometer at 300 K.
^1H,^15N-correlation experiments using with ^15N-isotopically enriched RIIα(1-44) were recorded using a standard HSQC pulse program or an HMQC-SOFAST pulse program, both employing WATERGATE for solvent suppression.
The protein concentration employed for binding studies was in the order of 0.1 mM. The concentration of compounds was 0.3 mM for compounds and 0.8 mM for peptides, respectively. Experiments were performed in NMR buffer containing 5% d6-DMSO. Each step was followed by recording of a new spectrum. The acquisition time in the direct dimension was restricted to 150 ms. A total of 256 increments was recorded in the indirect dimension. [formula]

For another series, the target named is T2, full length RIIα-His (Homo sapiens, UniProt P13861).
T2 construct: 20 µM unlabelled PKA-RIIα FL(1-404)-His; His (C)
T2 sequence (P13861 whole entry): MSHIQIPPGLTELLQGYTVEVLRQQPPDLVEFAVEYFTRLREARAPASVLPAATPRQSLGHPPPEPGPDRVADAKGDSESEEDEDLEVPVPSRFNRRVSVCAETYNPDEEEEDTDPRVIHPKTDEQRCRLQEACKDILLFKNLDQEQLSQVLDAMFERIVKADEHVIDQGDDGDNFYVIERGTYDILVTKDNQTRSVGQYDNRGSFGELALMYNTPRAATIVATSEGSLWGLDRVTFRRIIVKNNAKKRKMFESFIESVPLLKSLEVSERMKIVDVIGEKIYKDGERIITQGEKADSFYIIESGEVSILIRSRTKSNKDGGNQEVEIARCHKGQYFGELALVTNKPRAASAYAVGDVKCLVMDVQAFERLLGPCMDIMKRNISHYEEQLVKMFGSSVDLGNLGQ
Briefly: saturation transfer difference (STD) NMR binding experiment. To be noted: result in words; reduction in ligand peak intensity indicates binding. The protocol:
(§1) The compounds were tested first in a saturation transfer difference (STD) NMR experiment. For the STD experiments with the compounds depicted in table 1 full length RIIα-His was used as the target protein. Prior to measurements of STD spectra in the presence of the target protein, the same set of experiments was performed in the absence of protein in order to confirm that no saturation of the compound signals takes place when irradiating the sample at the frequency chosen for protein irradiation. […] Table 2: Qualitative results from STD and HSQC experiments with the indicated compounds.
Saturation transfer difference nuclear magnetic resonance (STD-NMR)
(§2) NMR samples for STD-NMR contained 0.1 mM of the indicated compound in NMR buffer, with a final concentration of d6-DMSO of 2%. Samples were measured in presence or absence of 20 µM unlabelled PKA-RIIα FL(1-404)-His.
STD-NMR experiments were recorded with the carrier frequency set to -1000 (around -1 ppm) for on-resonance irradiation and about 330 ppm for off-resonance irradiation. A train of 50 Gaussian-shaped pulses at 40 ms was applied, each separated by a 1-ms delay, for a total duration of 2.05 s, to achieve selective protein saturation. Spectra acquisition was done with 32 scans in absence of protein and 256 scans in presence of protein and a relaxation delay of 1.3 s. A T1ρ spin lock pulse of 40 ms was used to suppress the background protein signals. The STD spectrum was obtained from the internal subtraction of the on-resonance from the off-resonance data by phase cycling.

Series [1] in a line: behaviour of the compound in the STD-NMR sample solution. The format is physicochemical. The settings on record: 0.1 mM in NMR buffer, 2% d6-DMSO; no ligand peaks measurable by NMR. Here is the method:
as §1
In Fig. 4, the STD-spectra of a binding compound (25b) and a non-binding compound (14b) are depicted.
as §2

For another series, the system named is AKAP18α-PKA interaction. The settings on record: inhibition of AKAP18α-PKA interaction; cited from earlier work.

“Also recorded” adds a separate entry of the source.

T1 sequence (P13861 1-44): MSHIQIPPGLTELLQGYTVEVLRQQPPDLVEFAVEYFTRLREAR

As to `Cc1cc(-c2nc(CCCN)cc3c2CCC3)cnc1-c1cc(CCC(=O)O)cnc1C(N)=O` [14b], on D/D domain of RIIα, the “change in chemical shift of D/D domain signals upon addition of compound” value (“change in chemical shift” below) is recorded as “no perturbation of chemical shifts”. Further, the “binding of the compounds to RIIα in STD experiments” value (shortened to “binding of the compounds to RIIα”) on full length RIIα-His is given as “No binding was detected”.
With `Cc1cc(-c2nc(CCCNCc3ccccc3)cc3c2CCC3)cnc1-c1cc(CCC(=O)O)cnc1C(N)=O` [14c], the “change in chemical shift” value on D/D domain of RIIα is reported as “no perturbation of chemical shifts”. Also, the “binding of the compounds to RIIα” value on full length RIIα-His was “No binding was detected”.
With `CCOC(=O)CCc1cnc(C#N)c(-c2ncc(-c3nc(CCCN(Cc4ccccc4)Cc4ccccc4)cc4c3CCC4)c(C)c2C)c1` [22a, Ethyl 3-(6-cyano-5-(5-(3-(3-(dibenzylamino)propyl)-6,7-dihydro-5H-cyclopenta[c]pyridin-1-yl)-3,4-dimethylpyridin-2-yl)pyridine-3-yl)propanoate], the “solubility in the STD-NMR sample” value in series [1] was “precipitated from solution; also recorded: crystallized from the solution”.
For `Cc1c(-c2nc(CCCN(Cc3ccccc3)Cc3ccccc3)cc3c2CCC3)cnc(-c2cc(CCC(=O)O)cnc2C(N)=O)c1C` [25a, 3-[6-carbamoyl-5-[5-[3-[3-(dibenzylamino)propyl]-6,7-dihydro-5H-cyclopenta[c]pyridin-1-yl]-3,4-dimethyl-2-pyridyl]-3-pyridyl]propanoic acid], the “binding of the compounds to RIIα” value at full length RIIα-His is recorded as “reduction in ligand peak intensity”.
Consider `Cc1cc(-c2nc(CCCN(Cc3ccccc3)Cc3ccccc3)cc3c2CCC3)cnc1-c1cc(CCC(=O)O)cnc1C(N)=O` [25b, 3-[6-carbamoyl-5-[5-[3-[3-(dibenzylamino)propyl]-6,7-dihydro-5H-cyclopenta[c]pyridin-1-yl]-3-methyl-2-pyridyl]-3-pyridyl]propanoic acid], for which the “change in chemical shift” value at D/D domain of RIIα is given as “change in chemical shift of D/D domain signals was observed”. The “binding of the compounds to RIIα” value on full length RIIα-His is given as “reduction in ligand peak intensity”.
Regarding `CCOC(=O)CCc1cnc(C#N)c(-c2ncccc2C)c1` [compound 27], on D/D domain of RIIα, the “change in chemical shift” value is on record as “no perturbation of chemical shifts”. Further, on full length RIIα-His, the “binding of the compounds to RIIα” value was “No binding was detected”.
On to “PEDAELVRLSKRLVENAVEKAVQQY (SEQ ID 01) [AKAP18δ-L314E]”, for which the IC50 entry with AKAP18α-PKA interaction is given as “low nanomolar range”.

The record behind these values is patent EP2529738A1, “Substituted terpyridines” (Max-Delbrück-Centrum für Molekulare Medizin, priority 2011, dated 2012).
